From patent publication US4584377A, “Novel Fredericamycin A derivatives” (SS Pharmaceutical Co., Ltd., priority 1983, dated 1986) come the findings set out here.

One data set concerns Ehrlich carcinoma. Nature of the data set: Antitumor effect, survival of tumor-inoculated mice. In kind it is in vivo, ICR mice. As to conditions: intraperitoneally, once a day for 10 days.
Data set [1] relates to Staphylococcus epidermidis ATCC 12228. Nature of the data set: MIC, antibacterial activity (agar culture). In kind it is cell-based. As to conditions: ATCC12228, 37° C., 18-20 hours, Mueller-Hinton agar, read-out: Minimum inhibitory concentration MIC.
Data set [2] relates to Piricularia oryzae IAM 5016. The data set is described as follows: microbe, parasite or virus in culture. As to conditions: 120 h; read-out: Minimum inhibitory concentration MIC. Format: cell-based.
A short description of a further data set: physchem. Format: physicochemical. As to conditions: 10 μg/ml in dimethylsulfoxide/physiological saline; for Percentage remainder: 0 hr.; for remaining at 3 h / remaining at 6 h / remaining at 24 h / remaining at 48 h / remaining at 72 h: read-out: Percentage remainder. The method, then: The stability of some Fredericamycin A derivatives and Fredericamycin A in their aqueous solutions were tested in accordance with the following procedures.
The test compounds were individually dissolved in dimethylsulfoxide, followed by dilution of the resulting solutions with physiological saline to adjust the final concentrations of the test compounds and Fredericamycin to 10 μg/ml respectively. The thus-prepared test solutions were then subjected to high performance liquid chromatography after predetermined time intervals to measure the percentage remainders of the test compounds.

For another data set, the system named is mouse leukemia P-388. Nature of the data set: Antitumor effect, survival of tumor-inoculated mice. In kind it is in vivo, CDF1 mice. As to conditions: intraperitoneally, once a day for 10 days. The method, then:
(§1) Antitumor effects of some Fredericamycin A derivatives against Ehrlich carcinoma, Meth-A fibrosarcoma and mouse leukemia P-388 were tested in accordance with the following procedures. Antitumor effects against Ehrlich carcinoma and Meth-A fibrosarcoma are expressed by percentage of mean survival time of test and control animals. Antitumor effects against P-388 are expressed by percentage of median survival time of test and control animals.
(§2) (ii) Meth-A fibrosarcoma and mouse leukemia P-388:
(§3) 1×10^6 tumor cells were inoculated to CDF1 mice (.male., Charles River Japan Inc.) intraperitoneally. Each tested compound was given intraperitoneally once a day for 10 days from 1 day after tumor inoculation.

Another data set concerns Meth-A fibrosarcoma. Described as above. Conditions: intraperitoneally, once a day for 10 days. In kind it is in vivo, CDF1 mice. The method, then:
as §1, §2, §3

[3] abbreviates: Mus musculus, ip, 240 h, 0.5 mg/kg/day, read-out: percentage of mean survival time of test and control animals.
Where [4] appears, read: Mus musculus, ip, 240 h, 1.0 mg/kg/day, read-out: percentage of mean survival time of test and control animals.
[5] abbreviates: Mus musculus, ip, 240 h, 2.0 mg/kg/day, read-out: percentage of mean survival time of test and control animals.

≈ marks a conversion by molar mass, not a printed value.

As to `C/C=C/C=C/c1cc2cc3c(c(O)c2c(=O)[nH]1)C1(CC3)C(=O)c2c(OC(=O)CC(C)C)c3c(c(OC(=O)CC(C)C)c2C1=O)C(=O)C(OC)=CC3=O` (stereo not drawn) [Compound 2, Fredericamycin A diisovalerate], in the data set on Ehrlich carcinoma (setting [3]), the response vs control in vivo at 0.5 mg/kg/day is 120%. Moreover, in the data set on Ehrlich carcinoma (setting [4]), the response vs control in vivo at 1 mg/kg/day is over 168%. Moreover, in the data set with Ehrlich carcinoma (setting [5]), the response vs control in vivo at 2 mg/kg/day is over 229%.
As for `C/C=C/C=C/c1cc2cc3c(c(O)c2c(=O)[nH]1)C1(CC3)C(=O)c2c(OC(=O)c3ccc(C)cc3)c3c(c(OC(=O)c4ccc(C)cc4)c2C1=O)C(=O)C(OC)=CC3=O` (stereo not drawn) [Compound 3, Fredericamycin A di-p-methylbenzoate], the MIC stood at 25 µg/mL (≈ 32.2 µM) in data set [1] and 6.25 µg/mL (≈ 8.06 µM) in data set [2].
`C/C=C/C=C/c1cc2cc3c(c(O)c2c(=O)[nH]1)C1(CC3)C(=O)c2c(OC(=O)CC)c3c(c(OC(=O)CC)c2C1=O)C(=O)C(OC)=CC3=O` (stereo not drawn) [Compound 4]: the entries for the “percentage of mean survival time of test and control animals” value in the data set on Ehrlich carcinoma (0.5 mg/kg/day), with Ehrlich carcinoma (1.0 mg/kg/day) and in the data set on Ehrlich carcinoma (2.0 mg/kg/day) were “over 282%”, “over 288%” and 50%, respectively.
In the case of `C/C=C/C=C/c1cc2cc3c(c(O)c2c(=O)[nH]1)C1(CC3)C(=O)c2c(OC(=O)CCCCC)c3c(c(OC(=O)CCCCC)c2C1=O)C(=O)C(OC)=CC3=O` (stereo not drawn) [Compound 5], the MIC in data set [1] is 25 µg/mL (≈ 34 µM). For the same molecule, the MIC in data set [2] stood at 0.39 µg/mL (≈ 0.53 µM). In addition, the “percentage of mean survival time of test and control animals” value in the data set on Ehrlich carcinoma (0.5 mg/kg/day) is recorded as “over 247%”. For the same molecule, in the data set with Ehrlich carcinoma (1.0 mg/kg/day), the “percentage of mean survival time of test and control animals” value was “over 229%”. Moreover, in the data set with Ehrlich carcinoma (2.0 mg/kg/day), the “percentage of mean survival time of test and control animals” value is given as “over 256%”. Further, in the data set “physchem”, the Percentage remainder was 100%, the remaining at 3 h is 93.2%, the remaining at 6 h worked out at 88% and the remaining at 24 h turned out to be 67.6%. Besides, in “physchem”, the remaining at 48 h was 57.8% and the remaining at 72 h is 47.9%.
Regarding `C/C=C/C=C/c1cc2cc3c(c(O)c2c(=O)[nH]1)C1(CC3)C(=O)c2c(OC(=O)CCCCCCCCCCC)c3c(c(OC(=O)CCCCCCCCCCC)c2C1=O)C(=O)C(OC)=CC3=O` (stereo not drawn) [Compound 7], the MIC in data set [1] came to 25 µg/mL (≈ 27.7 µM); in data set [2], 1.56 µg/mL (≈ 1.73 µM). Also, the figures for the “percentage of mean survival time of test and control animals” value in the data set on Ehrlich carcinoma (0.5 mg/kg/day), with Ehrlich carcinoma (1.0 mg/kg/day) and in the data set with Ehrlich carcinoma (2.0 mg/kg/day) were 104%, 96% and 194%, respectively.
Take `C/C=C/C=C/c1cc2cc3c(c(O)c2c(=O)[nH]1)C1(CC3)C(=O)c2c(OC(=O)c3ccccc3)c3c(c(OC(=O)c4ccccc4)c2C1=O)C(=O)C(OC)=CC3=O` (stereo not drawn) [Compound 8]: in the data set with Ehrlich carcinoma (setting [3]), the response vs control in vivo at 0.5 mg/kg/day turned out to be 166%. The response vs control in vivo at 1 mg/kg/day with Ehrlich carcinoma (setting [4]) is over 199%. The response vs control in vivo at 2 mg/kg/day with Ehrlich carcinoma (setting [5]) stood at 97%.
Regarding `C/C=C/C=C/c1cc2cc3c(c(O)c2c(=O)[nH]1)C1(CC3)C(=O)c2c(OC(=O)c3ccc(OC)cc3)c3c(c(OC(=O)c4ccc(OC)cc4)c2C1=O)C(=O)C(OC)=CC3=O` (stereo not drawn) [Compound 10], the MIC in data set [1] was 12.5 µg/mL (≈ 15.5 µM); in data set [2], 1.56 µg/mL (≈ 1.93 µM). Also, in the data set with Ehrlich carcinoma (setting [3]), the response vs control in vivo at 0.5 mg/kg/day was 105%. Besides, the response vs control in vivo at 1 mg/kg/day in the data set with Ehrlich carcinoma (setting [4]) worked out at 171%. In addition, in the data set with Ehrlich carcinoma (setting [5]), the response vs control in vivo at 2 mg/kg/day is over 202%.
For the molecule `C/C=C/C=C/c1cc2cc3c(c(O)c2c(=O)[nH]1)C1(CC3)C(=O)c2c(OC(=O)c3ccc(Cl)cc3)c3c(c(OC(=O)c4ccc(Cl)cc4)c2C1=O)C(=O)C(OC)=CC3=O` (stereo not drawn) [Compound 11], the response vs control in vivo at 0.5 mg/kg/day with Ehrlich carcinoma (setting [3]) is over 139%. Further, in the data set with Ehrlich carcinoma (setting [4]), the response vs control in vivo at 1 mg/kg/day was over 198%. In addition, the response vs control in vivo at 2 mg/kg/day in the data set with Ehrlich carcinoma (setting [5]) is over 260%.
`CCCCCc1cc2cc3c(c(O)c2c(=O)[nH]1)C1(CC3)C(=O)c2c(c(OC(C)=O)c3c(OC(C)=O)c(OC)cc(OC(C)=O)c3c2OC(C)=O)C1=O` (stereo not drawn) [Compound 12, leucotetraacetyltetrahydrofredericamycin A]: the response vs control in vivo at 2 mg/kg/day in the data set on Ehrlich carcinoma (setting [5]) was found to be 116%. Besides, the response vs control in vivo at 4 mg/kg/day in the data set with Ehrlich carcinoma (Mus musculus, ip, 240 h, 4.0 mg/kg/day, read-out: percentage of mean survival time of test and control animals) is 136%. In addition, in the data set with Ehrlich carcinoma (Mus musculus, ip, 240 h, 8.0 mg/kg/day, read-out: percentage of mean survival time of test and control animals), the response vs control in vivo at 8 mg/kg/day is over 203%. Also, the “percentage of median survival time of test and control animals” value in the data set with mouse leukemia P-388 (2.0 mg/kg/day) was found to be 142%. The “percentage of median survival time of test and control animals” value in the data set on mouse leukemia P-388 (4.0 mg/kg/day) stood at 146%. Besides, the “percentage of median survival time of test and control animals” value with mouse leukemia P-388 (8.0 mg/kg/day) worked out at 152%. Also, in “physchem”, the Percentage remainder was 100%, the remaining at 3 h was found to be 99%, the remaining at 6 h is 98.3% and the remaining at 24 h was determined as 97.1%. In the data set “physchem”, the remaining at 48 h came out at 95.7% and the remaining at 72 h is 94.4%.
On to `CCCCCc1cc2cc3c(c(O)c2c(=O)[nH]1)C1(CC3)C(=O)c2c(O)c3c(c(O)c2C1=O)C(=O)C(OC)=CC3=O` (stereo not drawn) [Compound 17, tetrahydrofredericamycin A], for which, in the data set with Ehrlich carcinoma (Mus musculus, ip, 240 h, 0.125 mg/kg/day, read-out: percentage of mean survival time of test and control animals), the response vs control in vivo at 0.125 mg/kg/day amounted to 187%. The response vs control in vivo at 0.25 mg/kg/day in the data set on Ehrlich carcinoma (Mus musculus, ip, 240 h, 0.25 mg/kg/day, read-out: percentage of mean survival time of test and control animals) is 248%. Also, in the data set on Ehrlich carcinoma (setting [3]), the response vs control in vivo at 0.5 mg/kg/day turned out to be 250%. Further, the “percentage of mean survival time of test and control animals” value is 102% in the data set with Meth-A fibrosarcoma (0.25 mg/kg/day), 129% in the data set with Meth-A fibrosarcoma (0.5 mg/kg/day), 164% in the data set on Meth-A fibrosarcoma (1.0 mg/kg/day) and 232% with Meth-A fibrosarcoma (2.0 mg/kg/day). The “percentage of median survival time of test and control animals” value is 130% in the data set with mouse leukemia P-388 (2.0 mg/kg/day), 143% with mouse leukemia P-388 (4.0 mg/kg/day) and 152% with mouse leukemia P-388 (8.0 mg/kg/day).
For `CCCCCCCCCCCC(=O)Oc1c2c(c(OC(=O)CCCCCCCCCCC)c3c1C(=O)C1(CCc4cc5cc(CCCCC)[nH]c(=O)c5c(O)c41)C3=O)C(=O)C(OC)=CC2=O` (stereo not drawn) [Compound 21], in the data set “physchem”, the Percentage remainder is listed as 100%, the remaining at 3 h was 95.3%, the remaining at 6 h is 92.2% and the remaining at 24 h was found to be 87.3%. Further, in the data set “physchem”, the remaining at 48 h was found to be 80.5% and the remaining at 72 h turned out to be 74.8%.
